Data set [1] concerns several cell lines, especially breast cancer cells. Also noted: method as in PMID 22033675, PMID 27716613. The settings on record: cited from earlier work.
The test system of another data set is mice. Description: Side effect observed in mice. The settings on record: in vivo.
The target in another data set is T1, SHIP2 (Homo sapiens, UniProt O15357).
T1 construct: purchased Echelon Biosciences
T1 sequence (O15357 1-1258): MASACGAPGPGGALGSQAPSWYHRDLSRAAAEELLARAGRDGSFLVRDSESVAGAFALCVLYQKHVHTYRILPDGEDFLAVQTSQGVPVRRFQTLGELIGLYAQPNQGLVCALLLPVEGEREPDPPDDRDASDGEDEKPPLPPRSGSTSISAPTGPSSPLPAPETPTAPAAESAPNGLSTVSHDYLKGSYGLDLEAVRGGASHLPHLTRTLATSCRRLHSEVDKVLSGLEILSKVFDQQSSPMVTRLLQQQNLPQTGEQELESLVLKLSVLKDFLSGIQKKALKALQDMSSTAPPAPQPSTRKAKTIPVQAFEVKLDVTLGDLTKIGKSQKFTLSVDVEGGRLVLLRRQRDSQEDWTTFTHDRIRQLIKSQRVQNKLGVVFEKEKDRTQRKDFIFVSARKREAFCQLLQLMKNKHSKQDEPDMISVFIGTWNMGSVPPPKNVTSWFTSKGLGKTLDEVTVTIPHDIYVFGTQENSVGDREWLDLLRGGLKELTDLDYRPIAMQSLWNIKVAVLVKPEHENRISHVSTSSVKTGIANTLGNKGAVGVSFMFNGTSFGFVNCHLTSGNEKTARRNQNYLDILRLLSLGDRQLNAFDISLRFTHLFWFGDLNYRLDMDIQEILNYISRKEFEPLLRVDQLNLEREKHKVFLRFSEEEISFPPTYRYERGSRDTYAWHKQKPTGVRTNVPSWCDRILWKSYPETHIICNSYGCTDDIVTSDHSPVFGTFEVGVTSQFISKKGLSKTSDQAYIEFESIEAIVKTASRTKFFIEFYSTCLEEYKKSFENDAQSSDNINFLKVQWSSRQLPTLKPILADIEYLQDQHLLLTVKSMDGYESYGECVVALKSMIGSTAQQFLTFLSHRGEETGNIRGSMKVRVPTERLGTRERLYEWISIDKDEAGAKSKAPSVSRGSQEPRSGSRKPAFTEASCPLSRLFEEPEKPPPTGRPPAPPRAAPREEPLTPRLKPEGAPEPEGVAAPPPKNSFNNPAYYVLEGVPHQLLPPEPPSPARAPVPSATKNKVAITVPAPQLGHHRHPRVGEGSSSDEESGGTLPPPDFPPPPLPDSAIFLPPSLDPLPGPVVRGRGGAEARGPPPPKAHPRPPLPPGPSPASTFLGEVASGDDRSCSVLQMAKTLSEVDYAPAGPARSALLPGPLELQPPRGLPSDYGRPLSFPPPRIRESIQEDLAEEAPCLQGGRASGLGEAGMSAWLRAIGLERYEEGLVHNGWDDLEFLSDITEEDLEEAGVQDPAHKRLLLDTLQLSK
In words: Malachite green phosphatase release assay, SHIP2. The format is biochemical. The protocol: (§1) These compounds were then tested for their activity against the two SHIP paralogs, SHIP1 and SHIP2 in the colorimetric malachite green phosphatase assay. The malachite green assay detects the amount of free phosphate produced from enzymatic reactions with SHIP and an inositol phospholipid substrate.
(§2) 4.7. Malachite Green Phosphatase Release Assays
(§3) Malachite green assays to monitor phosphatase release (Echelon Biosciences) were performed with recombinant human truncated SHIP1 (tSHIP1) and SHIP2 (Echelon Biosciences). Serial dilutions of the compounds dissolved in DMSO were added to the recombinant enzymes diluted in reaction buffer Rx (50 mM Hepes pH 7.4, 150 mM NaCl, 1 mM MgCl2, 0.25 mM EDTA) in triplicate reaction wells in 96-well plates. After incubation for 2 min at room temperature, 2.5 µL of 1 mM phosphatidylinositol 3,4,5-trisphosphate diC8 (PI(3,4,5)P3-diC8, Echelon Biosciences) was added to each reaction to a final concentration of 100 µM in a final volume of 25 µL /well. Following a 20 min incubation at 37 °C, 100 µL of Malachite Green solution (Echelon Biosciences) was added to each well and the plates were incubated at room temperature in the dark for 15 min. Plates were then read at 620 nm on a plate reader (Synergy 2, BioTek, Santa Clara, CA, USA). In addition, 3α-Aminocholestane, a known SHIP1 inhibitor, and AS1949490, a known SHIP2 inhibitor, were used as positive controls.

Another data set concerns the target T2, tSHIP1 (Homo sapiens, UniProt Q92835).
T2 sequence (Q92835 399-715 limits assumed): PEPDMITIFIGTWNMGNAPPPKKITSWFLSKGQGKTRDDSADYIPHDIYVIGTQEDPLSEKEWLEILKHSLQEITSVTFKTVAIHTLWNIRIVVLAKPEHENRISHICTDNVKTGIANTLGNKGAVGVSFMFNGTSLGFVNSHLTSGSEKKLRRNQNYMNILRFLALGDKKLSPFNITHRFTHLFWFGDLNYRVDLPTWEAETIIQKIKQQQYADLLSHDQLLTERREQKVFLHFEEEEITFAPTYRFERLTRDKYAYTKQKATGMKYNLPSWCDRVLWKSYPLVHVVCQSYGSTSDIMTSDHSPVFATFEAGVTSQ
In words: Fluorescence Polarization (FP) assay for the detection of PI(3,4)P2, SHIP1. The format is biochemical. The protocol: as §1
4.8. Fluorescence Polarization (FP) Assays for the Detection of PI(3,4)P2
The FP Assay for the detection of PI(3,4)P2 (Echelon Biosciences) was performed using tSHIP1 [48] with serial dilutions of the tryptamines in DMSO according to the manufacturer’s recommendation as previously described. […] 40 µL of 4 µM PIP3 (PI(3,4,5)P3-diC8) in Rx buffer is added to each reaction and incubated at 37 °C for 20 min, followed by heat inactivation for 3 min at 95 °C. Reactions were spun down briefly and 10 µL of each reaction was added in 6 replicate wells to a black 384-well plate provided with the FP kit. 10 µL of 1X reconstituted Detector (a phosphoinositide binding protein) in PBS is then added to each well, followed by 5 µL of 1X freshly diluted Probe (in PBS, a fluorophore-labeled phosphoinositide) protected from light. Assay plates are gently tapped to mix, the plate is sealed and spun down briefly and the reaction is allowed to equilibrate for 60 min at room temperature protected from light.
For orientation: Polarisation of emitted light reports the rotation of a fluorescent probe.

The subject of the next data set is OCRL. Also noted: method as in PMID 22033675. The settings on record: cited from earlier work.
The test system of a further data set is multiple myeloma cells. Also noted: method as in PMID 22033675. The settings on record: followed by caspase cascade activation leading to extensive apoptosis; cited from earlier work.
Data set [2] concerns recombinant human truncated SHIP1 (tSHIP1). In words: Malachite green phosphatase release assay, SHIP1. Type of data set: biochemical. The settings on record: for Malachite (250 µM) % Inhib. SHIP1: 250 µM compound; for Malachite (500 µM) % Inhib. SHIP1: 500 µM compound; for activity against SHIP1 (in words): summary of Table 1. The protocol:
These compounds were then tested for their activity against the two SHIP paralogs, SHIP1 and SHIP2 in the colorimetric malachite green phosphatase assay. The malachite green assay detects the amount of free phosphate produced from enzymatic reactions with SHIP and an inositol phospholipid substrate. The Malachite assay is useful for ruling out compounds that are fluorescent or have aggregation issues and is inexpensive, so it was utilized as the primary screen even though it is not as sensitive as other assays.
as §2, §3

For data set [3], the system named is human blood cell cancers that express SHIP1. Also noted: method as in PMID 20200281, PMID 22033675. The settings on record: cited from earlier work.
A further data set deals with multiple myeloma. Also noted: method as in PMID 22033675. The settings on record: xenogeneic multiple myeloma model in mice; cited from earlier work.
Data set [4] deals with leukemia cell lines (NB4, HSB2, K562 and 697-Pre-B), multiple myeloma cell line OPM-2, breast cancer cell lines MBA-MD-231 and MCF-7. Description: MTT cell viability assay on cancer cell lines. Type of data set: cell-based. The settings on record: Figure 3. The source says:
. The assay monitors the ability of NADPH-dependent cellular oxidoreductases to reduce the dye MTT (3-(4,5-dimethylthiazol-2-yl)-2,5-diphenyltetrazolium bromide), which when reduced produces a purple color that can be easily quantified. This assay is often used to determine cell viability. […] All of these cell lines express SHIP1 due to their hematopoietic origin, as SHIP1 is selectively expressed in blood and bone marrow cells. Cytotoxicity was also found on the breast cancer cell lines MBA-MD-231 and MCF-7, which is likely due to the inhibition of SHIP2. […]. 4.9. MTT Cell Viability Assay
Cells were treated in triplicate or more with increasing concentrations of the compound. Cell viability was determined with a Cell Counting Kit (Dojindo Molecular Technologies, Rockville, MD, USA) per the manufacturer’s instructions. The […] (OD) of compound-treated cells was divided by the OD of their vehicle control, and the viability was expressed as a percentage of untreated cells. Results are expressed as mean ± standard error of the mean (SEM) of three individual experiments. […]
For orientation: Tetrazolium assays rely on reduction of a dye to a coloured formazan, in cell work by metabolically active cells.

The structures appear in SMILES notation.

For the molecule `CSc1ccc2c(c1)c(CCN)c(C)n2Cc1ccccc1Cl.Cl` [Compound 1, 2-(1-(2-Chlorobenzyl)-2-methyl-5-(methylthio)-1H-indol-3-yl)ethanaminium chloride], the “antitumor effects on cell lines” value in data set [1] was “significant antitumor effects”. Besides, in the data set with mice, the “psychotropic effect in mice” value was “induced a psychotropic effect”. Besides, the inhibition at 250 µM at SHIP2 (250 µM compound, read-out: Malachite (250 µM) % Inhib. SHIP2) stood at 7%. For the same molecule, at SHIP2 (500 µM compound, read-out: Malachite (500 µM) % Inhib. SHIP2), the inhibition at 500 µM came out at 59%. At SHIP2 (summary of Table 1), the “activity against SHIP2 (in words)” value is given as “significant activity”. The same molecule returned an IC50 on tSHIP1 of 5 µM. In addition, in the data set with OCRL, the “effect on OCRL” value is listed as “no effect”. Further, in the data set on multiple myeloma cells, the “cell cycle effect in multiple myeloma cells” value is recorded as “G2/M cell cycle arrest”. Further, in data set [2], the “Malachite (250 µM) % Inhib. SHIP1” value came to 7%, the “Malachite (500 µM) % Inhib. SHIP1” value came to 51% and the “activity against SHIP1 (in words)” value was “significant activity”.

`CC(C)CCC[C@@H](C)[C@H]1CC[C@H]2[C@@H]3CC[C@H]4C[C@H](N)CC[C@]4(C)[C@H]3CC[C@]12C` [Compound 3AC, 3α-aminocholestane]: in [3], the “Akt activation and apoptosis” value is “reduces Akt activation and promotes apoptosis”. In addition, the “protection from multiple myeloma growth” value in the data set with multiple myeloma was “effective in protecting the majority of mice”.

Turning to `CSc1ccc2c(c1)c(CCN)c(C)n2Cc1ccc(Cl)cc1Cl.Cl` [Compound 7d, 2-(1-(2,4-Dichlorobenzyl)-2-methyl-5-(methylthio)-1H-indol-3-yl)ethanaminium chloride], the “cytotoxicity on cancer cell lines (in words)” value in data set [4] is “greatest cytotoxicity”. Moreover, in data set [2], the “Malachite (250 µM) % Inhib. SHIP1” value was 32%, the “Malachite (500 µM) % Inhib. SHIP1” value amounted to 52% and the “activity against SHIP1 (in words)” value is listed as “significant activity”.

Usually IC50 stands for the midpoint of a concentration-inhibition curve. Low readings indicate higher potency, high ones lower potency.

(Values after publication PMC9738565, “N1-Benzyl Tryptamine Pan-SHIP1/2 Inhibitors: Synthesis and Preliminary Biological Evaluation as Anti-Tumor Agents” (Molecules, 2022).)
